Patent US20100331361A1, “PHARMACEUTICAL COMPOSITION CONTAINING ALPHA-ADRENERGIC RECEPTOR ANTAGONIST AND AN ANTI-MUSCARINIC AGENT AND METHOD OF IMPROVING LOWER URINARY TRACT SYMPTOMS ASSOCIATED WITH PROSTATIC HYPERTROPHY” (ASTELLAS PHARMA INC., priority 2007, published 2010)
Structures can show the parent of a compound that is named as a salt.

What was measured:
[1] = system: patients with prostatic hypertrophy accompanied with overactive bladder symptoms; details: cited from earlier work
[2] = system: Male human patients with prostatic hypertrophy who still had symptoms of overactive bladder; assay: I-PSS evaluation after four weeks, Single Group vs Combination Group (Example 1); assay type: in vivo; design: key to Scores of voiding symptoms (2) (4) (7) / Scores of voiding symptoms (2) (4) (7), Change / Total scores of I-PSS / Scores of storage symptoms (1) (3) (5) (6) / Scores of storage symptoms (1) (3) (5) (6), Change: summed item scores, each 0-5; higher = worse symptoms
Description: I-PSS is one of the criteria to evaluate the severity of the foregoing lower urinary tract symptoms by scoring responses to the following questions:
(2) During the last month, have you had to urinate again in less than two hours after you last urinated? (3) During the last month, have you experienced interrupted urination? (4) During the last month, have you found it difficult to postpone urination? […] (6) During the last month, have you had to strain to urinate? (7) During the last month, how many times did you typically have to get up to urinate after you went to bed until you got up in the morning?
The indices (1), (3), (5) and (6) evaluate voiding symptoms, and indices (2), (4) and (7) evaluate storage symptoms. Among these, responses to (1)-(6) are scored: 0 if the response was not at all, 1 if fewer than 1 time in 5, 2 if fewer than 1 time in 2, 3 if about 1 time in 2, 4 if more than 1 time in 2, and 5 if almost always. Additionally, the responses to (7) are respectively scored: 0, 1, 2, 3, 4, and 5 if the response was none, 1 time, 2 times, 3 times, 4 times, and 5 times or more.
Male human patients with prostatic hypertrophy who still had symptoms of overactive bladder (urgency, pollakiuria, urinary incontinence and/or nocturia, and the like.) after treatment with an α receptor antagonist for four weeks or longer were allocated for administration to two treatment groups: (1) tamsulosin hydrochloride 0.2 mg (hereinafter referred to as “Single Group”), and (2) tamsulosin hydrochloride 0.2 mg and solifenacin succinate 2.5 mg (hereinafter referred to as “Combination Group”), and then their symptoms were evaluated by I-PSS after four weeks of treatment. In Table 1 since the score of I-PSS becomes greater as the symptom worsens, greater minus change in scores indicates greater efficacy for the symptoms.

[3] = After treatment of 4 weeks, tamsulosin hydrochloride 0.2 mg alone or with solifenacin succinate 2.5 mg
[4] = Before treatment, tamsulosin hydrochloride 0.2 mg alone or with solifenacin succinate 2.5 mg
[5] = Change after 4 weeks, tamsulosin hydrochloride 0.2 mg alone or with solifenacin succinate 2.5 mg

In the case of `COc1cc2nc(N3CCN(C(=O)C4COc5ccccc5O4)CC3)nc(N)c2cc1OC` (centres unmarked) [doxazosin], the “improvement of the storage symptom score” value ([1]; in vivo) is listed as 2.9 points, the “improvement of the total I-PSS” value ([1]; in vivo) is listed as 7.3 points and the “improvement of the voiding symptom score” value ([1]; in vivo) is listed as 4.5 points.

For `CCOc1ccccc1OCCN[C@H](C)Cc1ccc(OC)c(S(N)(=O)=O)c1` [Single, (R)-5-(2-{[2-(2-ethoxyphenoxy)ethyl]amino}propyl-2-methoxybenzene-1-sulfonamide hydrochloride], the “Scores of storage symptoms (1) (3) (5) (6)” value [2, 3] was 5.8, the “Scores of voiding symptoms (2) (4) (7)” value [2, 3] was 4.2 and the “Total scores of I-PSS” value [2, 3] was 10.8. For the same compound, the “Total scores of I-PSS” value ([2]; Before treatment, tamsulosin hydrochloride 0.2 mg alone (Single) or with solifenacin succinate 2.5 mg (Combination)) was 11.6, the “Scores of storage symptoms (1) (3) (5) (6)” value [2, 4] was 6.5 and the “Scores of voiding symptoms (2) (4) (7)” value [2, 4] was 4.2. The “Scores of storage symptoms (1) (3) (5) (6), Change” value [2, 5] was −0.7, the “Scores of voiding symptoms (2) (4) (7), Change” value [2, 5] was 0.0 and the “Total scores of I-PSS, Change” value [2, 5] was −0.8.

In the case of `CCCOC(C(=O)OC1CCN(C)CC1)(c1ccccc1)c1ccccc1` [Propiverine], the “acute urinary retention (AUR)” value ([1]; added to doxazosin) is listed as “no acute AUR was observed” and the “effect on the urinary flow rate” value ([1]; added to doxazosin) is listed as “did not affect”.
